tested on: HCV replicon cells; assay: Cell-based HCV replicon assay (replicon RNA level by real time PCR, Taqman); conditions: Hepatitis C virus, 72 h, HCV replicon cells, replicon RNA level by real time PCR (Taqman), harvested on day 3; calculated EC90 reported as range class; read-out: EC90 (μM) range
Procedure, shortened: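 HCV replicon cells treated 3 days with 10 serial 2-fold compound dilutions (top 25 μM to 1 μM; 0.5% DMSO, 10% FBS). Replicon RNA quantified by multiplex Taqman RT-PCR (NS5B amplicon, GAPDH control); EC50 and EC90 = concentrations giving ΔCT of 1 and 3.2 over baseline.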

`Cc1nc(NCC(F)(F)F)nc(N[C@@H]2C[C@H](CO)[C@@H](O)[C@H]2O)c1-c1cc2cc(OCC(C)C)nc(C)c2o1` [Example 1055] and `COc1cc2cc(-c3c(C)nc(NCC(C)(C)C)nc3N[C@@H]3C[C@H](CO)[C@@H](O)[C@H]3O)oc2c(C)n1` [Example 1201] fall in the same range of EC90: 0.5 to 5 µM for the first, 0.5 to 5 µM for the second.

Compared with `Cc1nc(Nc2cccc(F)c2)nc(N[C@@H]2C[C@H](CO)[C@@H](O)[C@H]2O)c1-c1nc2cnccc2s1` [Example 1056], `COc1cccc(Nc2nc(C)c(-c3nc4ccccc4s3)c(N[C@@H]3C[C@H](CO)[C@@H](O)[C@H]3O)n2)c1` [Example 1122] is higher in EC90: less than 0.5 µM for the first, 0.5 to 5 µM for the second.

`Cc1nc(OCC(F)(F)F)nc(N[C@@H]2C[C@H](CO)[C@@H](O)[C@H]2O)c1-c1nc2ccccc2s1` [Example 1057] and `Cc1nc(NCC(F)(F)F)nc(N[C@H]2C[C@@H](CO)[C@H](O)[C@@H]2O)c1-c1nc2ccccc2s1` [Example 1060] cannot be ordered by EC90: greater than 5 µM for the first, greater than 5 µM for the second.

`OC[C@H]1C[C@@H](Nc2nc(NCC(F)(F)F)ncc2-c2nc3ccccc3s2)[C@H](O)[C@@H]1O` [Example 1058] and `CNC[C@H]1C[C@@H](Nc2nc(NCC(F)(F)F)nc(C)c2-c2nc3ccccc3s2)[C@H](O)[C@@H]1O` [Example 1071] fall in the same range of EC90: 0.5 to 5 µM for the first, 0.5 to 5 µM for the second.

First: Cc1nc(NCC2CC2)nc(N[C@@H]2C[C@H](CO)[C@@H](O)[C@H]2O)c1-c1cc2cc(OCC3CCC3)nc(C)c2o1 [Example 1059]
Second: COc1cc2cc(-c3c(C)nc(NCC4CC4)nc3N[C@@H]3C[C@H](CO)[C@@H](O)[C@H]3O)oc2c(OC)n1 [Example 1127]
The EC90 of the first is higher: greater than 5 µM for the first, less than 0.5 µM for the second.

`Cc1cc2nc(-c3c(C)nc(NCC(F)(F)F)nc3N[C@@H]3C[C@H](CO)[C@@H](O)[C@H]3O)sc2cc1C` [Example 1061] and `Cc1ccc2nc(-c3c(C)nc(NCC(F)(F)F)nc3N[C@@H]3C[C@H](CO)[C@@H](O)[C@H]3O)sc2c1` [Example 1063] fall in the same range of EC90: 0.5 to 5 µM for the first, 0.5 to 5 µM for the second.

First: COCC(O)CNc1nc(C)c(-c2nc3ccccc3s2)c(N[C@@H]2C[C@H](CO)[C@@H](O)[C@H]2O)n1 (stereo partly shown) [Example 1062]
Second: Cc1nc(NCCOC(F)(F)F)nc(N[C@@H]2C[C@H](CO)[C@@H](O)[C@H]2O)c1-c1nc2ccccc2s1 [Example 1066]
The EC90 of the first is higher: greater than 5 µM for the first, less than 0.5 µM for the second.

Compared with `CNc1ccc2oc(-c3c(C)nc(NCC(F)(F)F)nc3N[C@@H]3C[C@H](CO)[C@@H](O)[C@H]3O)nc2c1` [Example 1064], `CNc1ccc2oc(-c3c(C)nc(NCC4CC4)nc3N[C@@H]3C[C@H](CO)[C@@H](O)[C@H]3O)nc2c1` [Example 1065] is lower in EC90: greater than 5 µM for the first, 0.5 to 5 µM for the second.

First: COc1cccc2sc(-c3c(C)nc(NCC4CC4)nc3N[C@@H]3C[C@H](CO)[C@@H](O)[C@H]3O)nc12 [Example 1067]
Second: COc1cccc2sc(-c3c(C)nc(NCC4CC4)nc3N[C@@H]3C[C@H](C(C)O)[C@@H](O)[C@H]3O)nc12 (stereo partly shown) [Example 1073]
The EC90 of the first is lower: less than 0.5 µM for the first, 0.5 to 5 µM for the second.

First: COc1cccc2sc(-c3c(C)nc(N[C@H](C)c4ccc(C)cc4)nc3N[C@@H]3C[C@H](CO)[C@@H](O)[C@H]3O)nc12 [Example 1068]
Second: Cc1cc2sc(-c3c(C)nc(N[C@@H](C)c4ccc(OC(F)(F)F)cc4)nc3N[C@@H]3C[C@H](CO)[C@@H](O)[C@H]3O)nc2c(C)n1 [Example 1137]
The EC90 of the first is higher: 0.5 to 5 µM for the first, less than 0.5 µM for the second.

`COCCNC[C@H]1C[C@@H](Nc2nc(NCC(F)(F)F)nc(C)c2-c2nc3ccccc3s2)[C@H](O)[C@@H]1O` [Example 1069] and `Cc1nc(NCC(F)(F)F)nc(N[C@@H]2C[C@H](COC(=O)[C@@H](N)C(C)C)[C@@H](O)[C@H]2O)c1-c1nc2ccccc2s1` [Example 1133] fall in the same range of EC90: 0.5 to 5 µM for the first, 0.5 to 5 µM for the second.

`COc1cccc2sc(-c3c(C)nc(NCC(F)(F)F)nc3N[C@@H]3C[C@H](CO)[C@@H](O)[C@H]3O)nc12` [Example 1070] and `COc1cccc2sc(-c3c(C)nc(NCC(F)(F)F)nc3N[C@@H]3C[C@H](C(C)O)[C@@H](O)[C@H]3O)nc12` (stereo partly shown) [Example 1072] fall in the same range of EC90: 0.5 to 5 µM for the first, 0.5 to 5 µM for the second.

Compared with `Cc1nc(NC(C)c2ccco2)nc(N[C@@H]2C[C@H](CO)[C@H]3OC(C)(C)O[C@H]32)c1-c1nc2ccccc2s1` (stereo partly shown) [Example 1101], `Cc1nc(NCc2ccco2)nc(N[C@@H]2C[C@H](CO)[C@H]3OC(C)(C)O[C@H]32)c1-c1nc2ccccc2s1` [Example 1109] is lower in EC90: greater than 5 µM for the first, 0.5 to 5 µM for the second.

First: Cc1nc(NC(C)c2ccco2)nc(N[C@@H]2C[C@H](CO)[C@@H](O)[C@H]2O)c1-c1nc2ccccc2s1 (stereo partly shown) [Example 1102]
Second: Cc1nc(NCc2ccco2)nc(N[C@@H]2C[C@H](CO)[C@@H](O)[C@H]2O)c1-c1nc2ccccc2s1 [Example 1110]
The EC90 of the first is higher: 0.5 to 5 µM for the first, less than 0.5 µM for the second.

`Cc1nc(NCC(C)(C)C)nc(N[C@@H]2C[C@H](CO)[C@H]3OC(C)(C)O[C@H]32)c1-c1cc2cc(C(C)(C)C)ncc2o1` [Example 1103] and `Cc1nc(NCC(C)(C)C)nc(N[C@@H]2C[C@H](CO)[C@@H](O)[C@H]2O)c1-c1cc2cc(C(C)(C)C)ncc2o1` [Example 1104] cannot be ordered by EC90: greater than 5 µM for the first, greater than 5 µM for the second.

First: Cc1nc(NCc2cccc(N(C)C)c2)nc(N[C@@H]2C[C@H](CO)[C@H]3OC(C)(C)O[C@H]32)c1-c1nc2ccccc2s1 [Example 1105]
Second: Cc1nc(NCc2cccc(CN(C)C)c2)nc(N[C@@H]2C[C@H](CO)[C@H]3OC(C)(C)O[C@H]32)c1-c1nc2ccccc2s1 [Example 1118]
The EC90 of the first is lower: 0.5 to 5 µM for the first, greater than 5 µM for the second.

First: Cc1nc(NCc2cccc(N(C)C)c2)nc(N[C@@H]2C[C@H](CO)[C@@H](O)[C@H]2O)c1-c1nc2ccccc2s1 [Example 1106]
Second: Cc1nc(NCc2cccc(CN(C)C)c2)nc(N[C@@H]2C[C@H](CO)[C@@H](O)[C@H]2O)c1-c1nc2ccccc2s1 [Example 1119]
The EC90 of the first is lower: less than 0.5 µM for the first, 0.5 to 5 µM for the second.

First: COCc1cc2cc(-c3c(C)nc(NCc4ccco4)nc3N[C@@H]3C[C@H](CO)[C@H]4OC(C)(C)O[C@H]43)oc2cn1 [Example 1107]
Second: COCc1cc2cc(-c3c(C)nc(NCc4ccco4)nc3N[C@@H]3C[C@H](CO)[C@@H](O)[C@H]3O)oc2cn1 [Example 1108]
The EC90 of the first is higher: 0.5 to 5 µM for the first, less than 0.5 µM for the second.

`Cc1nc(NCc2cccc(N)c2)nc(N[C@@H]2C[C@H](CO)[C@H]3OC(C)(C)O[C@H]32)c1-c1nc2ccccc2s1` [Example 1111] and `Cc1nc(NCc2cc(Cl)cc(Cl)c2)nc(N[C@@H]2C[C@H](CO)[C@H]3OC(C)(C)O[C@H]32)c1-c1nc2ccccc2s1` [Example 1113] fall in the same range of EC90: 0.5 to 5 µM for the first, 0.5 to 5 µM for the second.

`Cc1nc(NCc2cccc(N)c2)nc(N[C@@H]2C[C@H](CO)[C@@H](O)[C@H]2O)c1-c1nc2ccccc2s1` [Example 1112] and `Cc1nc(NCc2ccc3c(c2)OCO3)nc(N[C@@H]2C[C@H](CO)[C@@H](O)[C@H]2O)c1-c1nc2ccccc2s1` [Example 1203] fall in the same range of EC90: 0.5 to 5 µM for the first, 0.5 to 5 µM for the second.

Compared with `Cc1nc(NCc2cc(Cl)cc(Cl)c2)nc(N[C@@H]2C[C@H](CO)[C@@H](O)[C@H]2O)c1-c1nc2ccccc2s1` [Example 1114], `Cc1cnc(CNc2nc(C)c(-c3nc4ccccc4s3)c(N[C@@H]3C[C@H](CO)[C@@H](O)[C@H]3O)n2)s1` [Example 1204] is lower in EC90: 0.5 to 5 µM for the first, less than 0.5 µM for the second.

`Cc1nc(N(C)Cc2ccccc2)nc(N[C@@H]2C[C@H](CO)[C@H]3OC(C)(C)O[C@H]32)c1-c1nc2ccccc2s1` [Example 1115] and `Cc1nc(N(C)Cc2ccccc2)nc(N[C@@H]2C[C@H](CO)[C@@H](O)[C@H]2O)c1-c1nc2ccccc2s1` [Example 1116] cannot be ordered by EC90: greater than 5 µM for the first, greater than 5 µM for the second.

`CCCCCCNc1nc(C)c(-c2nc3ccccc3s2)c(N[C@@H]2C[C@H](CO)[C@H]3OC(C)(C)O[C@H]32)n1` [Example 1117] and `COc1cnccc1Nc1nc(C)c(-c2nc3ccccc3s2)c(N[C@@H]2C[C@H](CO)[C@H]3OC(C)(C)O[C@H]32)n1` [Example 1130] cannot be ordered by EC90: greater than 5 µM for the first, greater than 5 µM for the second.

First: CC(C)(C)CNc1nc(CF)c(-c2nc3ccccc3s2)c(N[C@@H]2C[C@H](CO)[C@@H](O)[C@H]2O)n1 [Example 1120]
Second: COc1cc(CNc2nc(CF)c(-c3nc4ccccc4s3)c(N[C@@H]3C[C@H](CO)[C@@H](O)[C@H]3O)n2)cc(OC)c1 [Example 1121]
The EC90 of the first is higher: greater than 5 µM for the first, 0.5 to 5 µM for the second.

Compared with `COc1ccccc1Nc1nc(C)c(-c2nc3ccccc3s2)c(N[C@@H]2C[C@H](CO)[C@@H](O)[C@H]2O)n1` [Example 1123], `COc1cccc(Nc2nc(C)c(-c3nc4ccccc4s3)c(N[C@@H]3C[C@H](CO)[C@@H](O)[C@H]3O)n2)c1OC` [Example 1129] is higher in EC90: 0.5 to 5 µM for the first, greater than 5 µM for the second.

`Cc1nc(Nc2ccccc2OCc2ccccc2)nc(N[C@@H]2C[C@H](CO)[C@H]3OC(C)(C)O[C@H]32)c1-c1nc2ccccc2s1` [Example 1124] and `COc1cccc(Nc2nc(C)c(-c3nc4ccccc4s3)c(N[C@@H]3C[C@H](CO)[C@H]4OC(C)(C)O[C@H]43)n2)c1OC` [Example 1128] cannot be ordered by EC90: greater than 5 µM for the first, greater than 5 µM for the second.

`COc1cccc(OC)c1Nc1nc(C)c(-c2nc3ccccc3s2)c(N[C@@H]2C[C@H](CO)[C@@H](O)[C@H]2O)n1` [Example 1125] and `COc1cnccc1Nc1nc(C)c(-c2nc3ccccc3s2)c(N[C@@H]2C[C@H](CO)[C@@H](O)[C@H]2O)n1` [Example 1131] cannot be ordered by EC90: greater than 5 µM for the first, greater than 5 µM for the second.

First: COc1cc2cc(-c3c(C)nc(NCC4CC4)nc3N[C@@H]3C[C@H](CO)[C@H]4OC(C)(C)O[C@H]43)oc2c(OC)n1 [Example 1126]
Second: Cc1cc2sc(-c3c(C)nc(NCC4CC4)nc3N[C@@H]3C[C@H](CO)[C@@H](O)[C@H]3O)nc2c(C)n1 [Example 1134]
The EC90 of the first is higher: 0.5 to 5 µM for the first, less than 0.5 µM for the second.

Compared with `Cc1nc(NCC2CC2)nc(O[C@@H]2C[C@H](CO)[C@@H](O)[C@H]2O)c1-c1nc2ccccc2s1` [Example 1132], `Cc1nc(NCC2CC2)nc(N[C@@H]2C[C@H](CO)[C@@H](S(C)(=O)=O)[C@H]2O)c1-c1nc2ccccc2s1` [Example 1136] is lower in EC90: greater than 5 µM for the first, 0.5 to 5 µM for the second.

First: Cc1cc2sc(-c3c(C)nc(NCC(F)(F)F)nc3N[C@@H]3C[C@H](CO)[C@@H](O)[C@H]3O)nc2c(C)n1 [Example 1135]
Second: Cc1nc(NC(C)c2ccccn2)nc(N[C@@H]2C[C@H](CO)[C@@H](O)[C@H]2O)c1-c1nc2ccccc2s1 (stereo partly shown) [Example 1202]
The EC90 of the first is lower: less than 0.5 µM for the first, 0.5 to 5 µM for the second.

`COc1ccc(CNc2nc(C)c(-c3nc4ccccc4s3)c(N[C@@H]3CC[C@@H](O)[C@H]3O)n2)cc1OC` [Example 1205] was tested, and the EC90 was 0.5 to 5 µM.

Source: patent US8697694B2, “Substituted pyridine and pyrimidine derivatives and their use in treating viral infections” (priority 2008, dated 2014)
